# Results published in patent publication US9122153B2, “Cyclic compound, method for producing same, composition, and method for forming resist pattern” (MITSUBISHI GAS CHEMICAL COMPANY, INC., priority 2011, dated 2015).
# Assay: Solubility test of compound in safe solvent
# Assay type: physicochemical
# Conditions: 23° C., ultrasonic wave 30 minutes, visually evaluated; for CHN (dissolution amount): cyclohexanone; for PGME (dissolution amount): propylene glycol monomethyl ether
# Protocol: The compound was precisely weighed in a test tube at 23° C.; and the target solvent was added to the compound so that a predetermined concentration of the liquid to be obtained is set; a ultrasonic wave was applied to the liquid in an ultrasonic washing machine for 30 minutes; and the state of the resulting liquid was visually evaluated.
# The solubility of the compound in propylene glycol monomethyl ether (PGME) and cyclohexanone (CHN) was evaluated according to the following standard using the dissolution amount in each solvent. • A: 5.0% by weight≦dissolution amount • B: 3.0% by weight≦dissolution amount<5.0% by weight • C: dissolution amount<3.0% by weight • (2) Resolution, Shape, Roughness (LER), and Sensitivity of Resist Pattern
# The dissolution amounts of compounds obtained in the above Synthesis Examples 1 and 2 and Synthesis Comparative Example 1 in propylene glycol monomethyl ether (PGME) and cyclohexanone (CHN) were evaluated using the above evaluation method and standard.
CHN (dissolution amount),PGME (dissolution amount),SMILES
A (5.0% by weight≦dissolution amount),A (5.0% by weight≦dissolution amount),Oc1cc(O)c2cc1C(c1ccc(I)cc1)c1cc(c(O)cc1O)C(c1ccc(I)cc1)c1cc(c(O)cc1O)C(c1ccc(I)cc1)c1cc(c(O)cc1O)C2c1ccc(I)cc1 (stereo not drawn) [CR-1]
A (5.0% by weight≦dissolution amount),A (5.0% by weight≦dissolution amount),Oc1cc(O)c2cc1C(c1ccc(CI)cc1)c1cc(c(O)cc1O)C(c1ccc(CI)cc1)c1cc(c(O)cc1O)C(c1ccc(CI)cc1)c1cc(c(O)cc1O)C2c1ccc(CI)cc1 (stereo not drawn) [CR-2]

SMILES,CHN (dissolution amount),PGME (dissolution amount)
"Oc1cc(O)c2cc1C(c1ccc(C3CCCCC3)cc1)c1cc(c(O)cc1O)C(c1ccc(C3CCCCC3)cc1)c1cc(c(O)cc1O)C(c1ccc(C3CCCCC3)cc1)c1cc(c(O)cc1O)C2c1ccc(C2CCCCC2)cc1 (stereo not drawn) [CR-1A, reference compound]",C (dissolution amount<3.0% by weight),B (3.0% by weight≦dissolution amount<5.0% by weight)
